This note sets out measurements from patent publication US20250051355A1, “COMPOUNDS, COMPOSITIONS, AND METHODS” (ACONCAGUA BIO, INC., priority 2023, published 2025).

The structures appear in SMILES notation.

Assay [1] concerns the target human calcitonin receptor (CTR) and RAMP3 (AMY3) (Homo sapiens, UniProt O60896+P30988). The assay is described as follows: Amylin Receptor cAMP Assay II. It is filed as cell-based. The following applies: COS-7/AMY3 cells, cAMP dynamic 2 kit, read-out: Amylin Receptor cAMP Stimulation Activity: EC50. From the text:
Amylin Receptor cAMPAssay II
AMYRs are heterodimers of the class B calcitonin (CT) G-protein-coupled receptor (CTR) and receptor activity-modifying proteins (RAMPs). All three RAMPs can interact with the CTR and form AMY1, AMY2, AMY3 with RAMP1, RAMP2 and RAMP3, respectively. Like other class B1 GPCRs, the CT receptor family is canonically coupled to Gs-mediated cAMP production, and measurement of cAMP accumulation has been the primary assay used to determine peptide selectivity and potency.
(§1) To optimize functional activity directed toward Gas coupling, COS-7 cells were stably transfected with human calcitonin receptor (CTR) and RAMP3, simultaneously. 100×concentration of compound working solutions were prepared with 4-fold serial dilution in 384-well Echo LDV plate (Labcyte, Cat #LP-0200-BC). 200 nL/well 100×concentration of compound working solutions were moved to 384-well white microplate (Perkin Elmer, Cat #6007680) using Labcyte ECHO550. […] cells/mL COS-7/AMY3 cell suspensions prepared with assay buffer [HBSS containing 20 mM HEPES (Gibco, Cat #15630-080), 0.5 mM IBMX (Sigma, Cat #15879) and 0.1% Casein (Sigma, Cat #C4765)], 20 μL cell suspensions were added to each well of previous generated assay plate which already contains 200 nL compound at 100×concentration using ThermoFisher Multidrop Combi (2000 cells/well). Seal the plate and incubate at 37° C. with 5% CO2 for 30 min.
After incubation, the cAMP assay signal was generated using cAMP dynamic 2 kit (Revvity, Cat #62AM4PEC). 10 μL cAMP-d2 working solution was added to each well, followed by 10 μL Anti-cAMP antibody-cryptate working solution which was added to each well using CERTUS FLEX LIQUID DISPENSER The samples were then incubated at room temperature for 1 hour protected from light. the fluorescence was read at 665 and 615 nm with Reader PerkinElmer EnVision 2105.

Assay [2] has as its target T1, human calcitonin receptor (CTR) (Homo sapiens, UniProt P30988).
T1 construct: expressed in transfected cells; host or cells: COS-7 (COS7-human CTR Clone #2)
T1 sequence (P30988 25-474): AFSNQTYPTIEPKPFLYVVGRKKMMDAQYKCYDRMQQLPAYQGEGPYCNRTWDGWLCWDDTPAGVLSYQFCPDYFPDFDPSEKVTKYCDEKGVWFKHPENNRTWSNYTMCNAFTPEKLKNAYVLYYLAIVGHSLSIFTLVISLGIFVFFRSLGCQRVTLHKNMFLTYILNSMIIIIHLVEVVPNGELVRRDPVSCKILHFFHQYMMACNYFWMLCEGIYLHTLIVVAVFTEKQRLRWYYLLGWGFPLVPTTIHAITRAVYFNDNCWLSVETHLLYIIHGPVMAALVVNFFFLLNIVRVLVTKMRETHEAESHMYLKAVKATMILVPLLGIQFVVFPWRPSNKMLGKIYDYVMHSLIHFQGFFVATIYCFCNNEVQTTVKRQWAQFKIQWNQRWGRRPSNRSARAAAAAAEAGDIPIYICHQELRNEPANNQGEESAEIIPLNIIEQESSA
The experiment in a line: Calcitonin receptor (CTR) cAMP Assay. The assay is classed as cell-based. The conditions noted are these: COS7-human CTR Clone #2 cells, cAMP dynamic 2 kit; read-out: Calcitonin Receptor cAMP Stimulation Activity: EC50.
Excerpt: Calcitonin receptor (CTR) cAMPAssay
The calcitonin receptor (CTR) belongs to the subfamily of GPCRs known as the secretin or ‘B’ family of GPCRs. Like other class B1 GPCRs, the CT receptor family is canonically coupled to Gs-mediated cAMP production, and measurement of cAMP accumulation has been the primary assay used to determine peptide selectivity and potency.
as §1, with “to create COS7-human CTR Clone #2 stable cell line. 100× concentration” for “and RAMP3, simultaneously. 100×concentration”, “COS7-human CTR Clone #2” for “COS-7/AMY3”
After incubation, the cAMP assay signal was generated using cAMP dynamic 2 kit (Revvity, Cat #62AM4PEC). […] cAMP-d2 working solution was added to each well, followed by 10 μL Anti-cAMP antibody-cryptate working solution which was added to each well using CERTUS FLEX LIQUID DISPENSER The samples were then incubated at room temperature for 1 hour protected from light. the fluorescence was read at 665 and 615 nm with Reader PerkinElmer EnVision 2105.

Chain of human calcitonin receptor (CTR) and RAMP3 (AMY3) (O60896 24-148, one chain of several): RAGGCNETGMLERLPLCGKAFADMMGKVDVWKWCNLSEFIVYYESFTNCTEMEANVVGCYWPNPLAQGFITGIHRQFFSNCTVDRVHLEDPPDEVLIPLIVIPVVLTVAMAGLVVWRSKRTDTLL

Turning to `Cc1nnc(-c2c(CCC3CCCCO3)nc3c(c2-c2ccc(C(=O)NCc4ccc(F)c(F)c4)s2)C(=O)N2CCC[C@@H]32)o1` (stereo partly drawn) [Compound 62, N-(3,4-difluorobenzyl)-5-((9aS)-3-(5-methyl-1,3,4-oxadiazol-2-yl)-5-oxo-2-(2-(tetrahydro-2H-pyran-2-yl)ethyl)-7,8,9,9a-tetrahydro-5H-pyrido[2,3-a]pyrrolizin-4-yl)thiophene-2-carboxamide], the EC50 stood at 2070 nM in assay [1] and 129 nM in assay [2].

As for `Cc1nnc(-c2c(CCC3CCOCC3)nc3c(c2-c2cc4ccnc(N[C@@H]5CCc6ncccc65)c4s2)C(=O)N2CCC[C@@H]32)o1` [Compound 64, (S)-4-(7-(((R)-6,7-dihydro-5H-cyclopenta[b]pyridin-5-yl)amino)thieno[2,3-c]pyridin-2-yl)-3-(5-methyl-1,3,4-oxadiazol-2-yl)-2-(2-(tetrahydro-2H-pyran-4-yl)ethyl)-7,8,9,9a-tetrahydro-5H-pyrido[2,3-a]pyrrolizin-5-one], the EC50 in assay [1] was found to be 306 nM; in assay [2], 25 nM.

Regarding `Cc1nnc(-c2c(CC3COc4cc(F)ccc43)nc3c(c2-c2ccc(C(=O)NCc4ccc(F)c(F)c4)s2)C(=O)N2CCC[C@@H]32)o1` (stereo partly drawn) [Compound 67, 5-[(9aS)-2-[(6-fluoro-2,3-dihydrobenzofuran-3-yl)methyl]-3-(5-methyl-1,3,4-oxadiazol-2-yl)-5-oxo-7,8,9,9a-tetrahydropyrido[2,3-a]pyrrolizin-4-yl]-N-[(3,4-difluorophenyl)methyl]thiophene-2-carboxamide], the EC50 was 412 nM in assay [1] and 22 nM in assay [2].

`Cc1nnc(-c2c(CCc3ccc(F)cc3)nc3c(c2-c2ccc(C(=O)NCc4ccc(F)c(F)c4)s2)C(=O)N2CCOC[C@@H]32)o1` [Compound 68, (R)—N-(3,4-difluorobenzyl)-5-(2-(4-fluorophenethyl)-3-(5-methyl-1,3,4-oxadiazol-2-yl)-5-oxo-7,8,10,10a-tetrahydro-5H-pyrido[2′,3′:3,4]pyrrolo[2,1-c][1,4]oxazin-4-yl)thiophene-2-carboxamide]: the values for the EC50 in assay [1] and in assay [2] were 168 nM and 3 nM, respectively.

`Cc1nnc(-c2c(CCC3CCOCC3)nc3c(c2-c2cc4ccnc(N[C@@H]5CCc6ncccc65)c4s2)C(=O)N[C@H]3C(C)C)o1` [Compound 76]: the EC50 in assay [1] came out at 508 nM; in assay [2], 71 nM.

As for `COc1cccc2c1CC[C@H]2Nc1nccc2cc(-c3c(-c4nnc(C)o4)c(CCC4CCOCC4)nc4c3S(=O)(=O)CC4C(C)C)sc12` (stereo partly drawn) [Compound 77, 3-isopropyl-7-(7-(((R)-4-methoxy-2,3-dihydro-1H-inden-1-yl)amino)thieno[2,3-c]pyridin-2-yl)-6-(5-methyl-1,3,4-oxadiazol-2-yl)-5-(2-(tetrahydro-2H-pyran-4-yl)ethyl)-2,3-dihydrothieno[3,2-b]pyridine 1,1-dioxide], the EC50 in assay [1] came out at 427 nM; in assay [2], 6.4 nM.

With `Cc1nnc(-c2c(CCC3CCOCC3)nc3c(c2-c2cc4ccnc(N[C@@H]5CCc6ncccc65)c4s2)S(=O)(=O)CC3C(C)C)o1` (stereo partly drawn) [Compound 78, 7-(7-(((R)-6,7-dihydro-5H-cyclopenta[b]pyridin-5-yl)amino)thieno[2,3-c]pyridin-2-yl)-3-isopropyl-6-(5-methyl-1,3,4-oxadiazol-2-yl)-5-(2-(tetrahydro-2H-pyran-4-yl)ethyl)-2,3-dihydrothieno[3,2-b]pyridine 1,1-dioxide], the EC50 was determined as 187 nM in assay [1] and 13 nM in assay [2].

For the compound `Cc1nnc(-c2c(CCC3CCOCC3)nc3c(c2-c2cc4ccnc(N[C@@H]5CCc6ncccc65)c4s2)S(=O)(=O)N2CCC[C@@H]32)o1` [Compound 81, (S)-4-(7-(((R)-6,7-dihydro-5H-cyclopenta[b]pyridin-5-yl)amino)thieno[2,3-c]pyridin-2-yl)-3-(5-methyl-1,3,4-oxadiazol-2-yl)-2-(2-(tetrahydro-2H-pyran-4-yl)ethyl)-7,8,9,9a-tetrahydropyrrolo[1′,2′:2,3]isothiazolo[4,5-b]pyridine 5,5-dioxide], the EC50 came out at 325 nM in assay [1] and 7.5 nM in assay [2].

`COc1cccc2c1CC[C@H]2Nc1nccc2cc(-c3c(-c4nnc(C)o4)c(CCC4CCOCC4)nc4c3S(=O)(=O)N3CCC[C@@H]43)sc12` [Compound 84, [(R)-4-methoxy-1-indanyl](2-((2S)-10-(5-methyl-1,3,4-oxadiazol-2-yl)-7,7-dioxo-11-[2-(tetrahydro-2H-pyran-4-yl)ethyl]-7λ^6-thia-6,12-diazatricyclo[6.4.0.0^2,6]dodeca-1(12),8,10-trien-9-yl}-1-thia-6-aza-7-indenyl)amine]: the concentration giving a half-maximal response (EC50) came out at 91.6 nM in assay [1] and 7.4 nM in assay [2].

Consider `COc1cccc2c1CC[C@H]2Nc1nccc2cc(-c3c4c(nc(CCc5ccc(F)cc5)c3-c3nnc[nH]3)[C@@H]3CCCN3C4=O)sc12` [Compound 85, (S)-2-(4-fluorophenethyl)-4-(7-(((R)-4-methoxy-2,3-dihydro-1H-inden-1-yl)amino)thieno[2,3-c]pyridin-2-yl)-3-(4H-1,2,4-triazol-3-yl)-7,8,9,9a-tetrahydro-5H-pyrido[2,3-a]pyrrolizin-5-one], for which the EC50 in assay [1] is 13 nM; in assay [2] it was 0.676 nM.

For `COc1cccc2c1CC[C@H]2Nc1nccc2cc(-c3c4c(nc(CCc5ccc(F)cc5)c3-c3nnc(N)o3)[C@@H]3CCCN3C4=O)sc12` [Compound 86, (2S)-9-(7-[(R)-4-methoxy-1-indanylamino]-1-thia-6-aza-2-indenyl}-10-(5-amino-1,3,4-oxadiazol-2-yl)-11-[2-(p-fluorophenyl)ethyl]-6,12-diazatricyclo[6.4.0.0^2,^6]dodeca-1(8),9,11-trien-7-one], the EC50 turned out to be 9.66 nM in assay [1] and 0.398 nM in assay [2].

Turning to `Cc1nnc(-c2c(CCC3CCOCC3)nc3c(c2-c2cn4c(N[C@@H]5CCc6ncccc65)cccc4n2)S(=O)(=O)CC3C(C)C)o1` (stereo partly drawn) [Compound 87, N—(R)-4-aza-1-indanyl(2-(3-isopropyl-6-(5-methyl-1,3,4-oxadiazol-2-yl)-1,1-dioxo-5-[2-(tetrahydro-2H-pyran-4-yl)ethyl]-1λ^6-thia-4-aza-7-indanyl}-1,3a-diaza-4-indenyl)amine], the EC50 is > 100 nM in assay [1] and 4380 nM in assay [2].

`Cc1nnc(-c2c(CCC3CCOCC3)nc3c(c2-c2cn4cccc(N[C@@H]5CCc6ncccc65)c4n2)S(=O)(=O)CC3C(C)C)o1` (stereo partly drawn) [Compound 88, N—(R)-4-aza-1-indanyl(2-(3-isopropyl-6-(5-methyl-1,3,4-oxadiazol-2-yl)-1,1-dioxo-5-[2-(tetrahydro-2H-pyran-4-yl)ethyl]-1λ^6-thia-4-aza-7-indanyl}-1,3a-diaza-7-indenyl)amine]: the 50% effective concentration (EC50) in assay [1] is 3100 nM; in assay [2] it was 1050 nM.

As a reminder, the EC50 is the concentration that produces a half-maximal response.
